Values joined by “and” are separate entries in the source; they are usually repeats but may differ in a detail not shown here. Equal values may be shown once.
Tested on: 596521-263-R-J1-PDC complex spheroid growth
Assay: Anticancer human tumor 596521-263-R-J1-PDC patient-derived soft tissue sarcoma cell line growth inhibition [Asc]
Conditions: for viability, T/C: stronger effect = lower value
In short: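 Spheroid model: tumor line + HUVEC + hMSC. Single agents and combinations; top conc. at/near clinical Cmax (10 microM if undetermined), half-log dilutions. DMSO stocks at 800-fold test concentration.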
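Further: spheroids exposed to compounds for 7 days.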

Work on `O=C(c1cc(Cc2n[nH]c(=O)c3ccccc23)ccc1F)N1CCN(C(=O)C2CC2)CC1` + CNC(C)C(=O)NC1CN(S(=O)(=O)c2cccc(S(=O)(=O)N3CCC4CCC(C(=O)NC(c5ccccc5)c5ccccc5)N4C(=O)C(NC(=O)C(C)NC)C3)c2)CCC2CCC(C(=O)NC(c3ccccc3)c3ccccc3)N2C1=O yielded an IC50 (curve of first compound, second compound 0.00316 µM) of under 31.6 nM, an IC50 (curve of first compound, second compound 0.01 µM) of 2080 nM and an IC50 (curve of first compound, second compound 0.0316 µM) of 4760 nM. It also gave an IC50 (curve of first compound, second compound 0.1 µM) of 3650 nM, an IC50 (curve of first compound, second compound 0.316 µM) of 2910 nM and an IC50 (curve of first compound, second compound 1 µM) of 2230 nM. It also gave a viability, T/C (second compound 0.00316 µM, first compound 0.0316 µM) of 16.1%, a viability, T/C (second compound 0.00316 µM, first compound 0.1 µM) of 14.4% and a viability, T/C (second compound 0.00316 µM, first compound 0.316 µM) of 17.1%. It also gave a viability, T/C (second compound 0.00316 µM, first compound 1 µM) of 14.8%, a viability, T/C (second compound 0.00316 µM, first compound 3.16 µM) of 13.7% and a viability, T/C (second compound 0.00316 µM, first compound 10 µM) of 12.7%. For the same compound, the viability, T/C (second compound 0.01 µM, first compound 0.0316 µM) was 73.9%, the viability, T/C (second compound 0.01 µM, first compound 0.1 µM) was 61.2% and the viability, T/C (second compound 0.01 µM, first compound 0.316 µM) was 60.7%. It also gave a viability, T/C (second compound 0.01 µM, first compound 1 µM) of 64.3%, a viability, T/C (second compound 0.01 µM, first compound 3.16 µM) of 36.7% and a viability, T/C (second compound 0.01 µM, first compound 10 µM) of 45.1%. The viability, T/C (second compound 0.0316 µM, first compound 0.0316 µM) was 90.9%, the viability, T/C (second compound 0.0316 µM, first compound 0.1 µM) was 84.4% and the viability, T/C (second compound 0.0316 µM, first compound 0.316 µM) was 87.2%. For the same compound, the viability, T/C (second compound 0.0316 µM, first compound 1 µM) was 71.8%, the viability, T/C (second compound 0.0316 µM, first compound 3.16 µM) was 54.6% and the viability, T/C (second compound 0.0316 µM, first compound 10 µM) was 42.4%. For the same compound, the viability, T/C (second compound 0.1 µM, first compound 0.0316 µM) was 79.1%, the viability, T/C (second compound 0.1 µM, first compound 0.1 µM) was 73.4% and the viability, T/C (second compound 0.1 µM, first compound 0.316 µM) was 75.5%. It also gave a viability, T/C (second compound 0.1 µM, first compound 1 µM) of 78.1%, a viability, T/C (second compound 0.1 µM, first compound 3.16 µM) of 51.7% and a viability, T/C (second compound 0.1 µM, first compound 10 µM) of 37.7%. For the same compound, the viability, T/C (second compound 0.316 µM, first compound 0.0316 µM) was 77.4%, the viability, T/C (second compound 0.316 µM, first compound 0.1 µM) was 79.2% and the viability, T/C (second compound 0.316 µM, first compound 0.316 µM) was 80.5%. For the same compound, the viability, T/C (second compound 0.316 µM, first compound 1 µM) was 72.4%, the viability, T/C (second compound 0.316 µM, first compound 3.16 µM) was 48.4% and the viability, T/C (second compound 0.316 µM, first compound 10 µM) was 36%. The viability, T/C (second compound 1 µM, first compound 0.0316 µM) was 68.7%, the viability, T/C (second compound 1 µM, first compound 0.1 µM) was 71.5% and the viability, T/C (second compound 1 µM, first compound 0.316 µM) was 61.7%. It also gave a viability, T/C (second compound 1 µM, first compound 1 µM) of 69.1%, a viability, T/C (second compound 1 µM, first compound 3.16 µM) of 42.3% and a viability, T/C (second compound 1 µM, first compound 10 µM) of 31.3%.
With `NC1CCC(NC2CC2c2ccccc2)CC1` (stereo unspecified) the viability, T/C (compound 0.000316 µM) was 92.5% and 90.7%, the viability, T/C (compound 0.001 µM) was 87% and 79.9% and the viability, T/C (compound 0.00316 µM) was 90% and 91.5%. For the same compound, the viability, T/C (compound 0.01 µM) was 95.4% and 94.3%, the viability, T/C (compound 0.0316 µM) was 99.2% and 85.7% and the viability, T/C (compound 0.1 µM) was 88.1% and 89.4%. The IC50 (curve of compound) was over 100 nM.
Work on `CCN1CCN(Cc2ccc(Nc3ncc(F)c(-c4cc(F)c5nc(C)n(C(C)C)c5c4)n3)nc2)CC1` + CCN1C(C(=O)NC23CCC(C(=O)O)(CC2)CC3)C(c2cccc(Cl)c2F)C2(C(=O)Nc3cc(Cl)ccc32)C12CCCCC2 yielded an IC50 (curve of first compound, second compound 0.00949 µM) of over 1000 nM, an IC50 (curve of first compound, second compound 0.03 µM) of over 1000 nM and an IC50 (curve of first compound, second compound 0.0949 µM) of over 1000 nM. For the same compound, the IC50 (curve of first compound, second compound 0.3 µM) was over 1000 nM, the IC50 (curve of first compound, second compound 0.949 µM) was over 1000 nM and the IC50 (curve of first compound, second compound 3 µM) was over 1000 nM. For the same compound, the viability, T/C (second compound 0.00949 µM, first compound 0.00316 µM) was 100%, the viability, T/C (second compound 0.00949 µM, first compound 0.01 µM) was 96.6% and the viability, T/C (second compound 0.00949 µM, first compound 0.0316 µM) was 82.5%. For the same compound, the viability, T/C (second compound 0.00949 µM, first compound 0.1 µM) was 103%, the viability, T/C (second compound 0.00949 µM, first compound 0.316 µM) was 97.5% and the viability, T/C (second compound 0.00949 µM, first compound 1 µM) was 83.2%. For the same compound, the viability, T/C (second compound 0.03 µM, first compound 0.00316 µM) was 92.6%, the viability, T/C (second compound 0.03 µM, first compound 0.01 µM) was 96.9% and the viability, T/C (second compound 0.03 µM, first compound 0.0316 µM) was 96.8%. It also gave a viability, T/C (second compound 0.03 µM, first compound 0.1 µM) of 89.4%, a viability, T/C (second compound 0.03 µM, first compound 0.316 µM) of 110% and a viability, T/C (second compound 0.03 µM, first compound 1 µM) of 88%. The viability, T/C (second compound 0.0949 µM, first compound 0.00316 µM) was 99.5%, the viability, T/C (second compound 0.0949 µM, first compound 0.01 µM) was 112% and the viability, T/C (second compound 0.0949 µM, first compound 0.0316 µM) was 96.1%. The viability, T/C (second compound 0.0949 µM, first compound 0.1 µM) was 85.5%, the viability, T/C (second compound 0.0949 µM, first compound 0.316 µM) was 93.6% and the viability, T/C (second compound 0.0949 µM, first compound 1 µM) was 86.7%. It also gave a viability, T/C (second compound 0.3 µM, first compound 0.00316 µM) of 97.1%, a viability, T/C (second compound 0.3 µM, first compound 0.01 µM) of 93.5% and a viability, T/C (second compound 0.3 µM, first compound 0.0316 µM) of 90%. The viability, T/C (second compound 0.3 µM, first compound 0.1 µM) was 102%, the viability, T/C (second compound 0.3 µM, first compound 0.316 µM) was 93.1% and the viability, T/C (second compound 0.3 µM, first compound 1 µM) was 77.3%. For the same compound, the viability, T/C (second compound 0.949 µM, first compound 0.00316 µM) was 103%, the viability, T/C (second compound 0.949 µM, first compound 0.01 µM) was 93.2% and the viability, T/C (second compound 0.949 µM, first compound 0.0316 µM) was 103%. The viability, T/C (second compound 0.949 µM, first compound 0.1 µM) was 91.2%, the viability, T/C (second compound 0.949 µM, first compound 0.316 µM) was 82.8% and the viability, T/C (second compound 0.949 µM, first compound 1 µM) was 83.4%. It also gave a viability, T/C (second compound 3 µM, first compound 0.00316 µM) of 91.6%, a viability, T/C (second compound 3 µM, first compound 0.01 µM) of 102% and a viability, T/C (second compound 3 µM, first compound 0.0316 µM) of 89.9%. The viability, T/C (second compound 3 µM, first compound 0.1 µM) was 97.7%, the viability, T/C (second compound 3 µM, first compound 0.316 µM) was 98.5% and the viability, T/C (second compound 3 µM, first compound 1 µM) was 89.9%.

From PubChem BioAssay AID1963449 (Molecular Pharmacology Branch, DTP, NCI, 2024)
